Measured values as given in ChEMBL document CHEMBL2401728, “An unexpected Dimroth rearrangement leading to annelated thieno[3,2-d][1,2,3]triazolo[1,5-a]pyrimidines with potent antitumor activity” (Eur J Med Chem, 2013).

Experiments:
Assay type in all cases: functional
[1] = system: M14; experiment: Cytotoxicity against human M14 cells assessed as cellular growth at 100 uM after 48 hrs by SRB assay relative to control
[2] = system: HOP-92; experiment: Cytotoxicity against human HOP92 cells assessed as cellular growth at 1 uM after 48 hrs by SRB assay relative to control
[3] = system: Hs-578T; experiment: Cytotoxicity against human Hs578T cells assessed as cellular growth at 1 uM after 48 hrs by SRB assay relative to control
[4] = system: ACHN; experiment: Cytotoxicity against human ACHN cells after 48 hrs by SRB assay
[5] = system: T47D; experiment: Cytotoxicity against human T47D cells assessed as cellular growth at 0.1 uM after 48 hrs by SRB assay relative to control
[6] = system: Hs-578T; experiment: Cytotoxicity against human Hs578T cells assessed as cellular growth at 100 uM after 48 hrs by SRB assay relative to control
[7] = system: SK-MEL-28; experiment: Cytotoxicity against human SK-MEL-28 cells assessed as cellular growth at 100 uM after 48 hrs by SRB assay relative to control
[8] = system: UACC-257; experiment: Cytotoxicity against human UACC257 cells assessed as cellular growth at 100 uM after 48 hrs by SRB assay relative to control
[9] = system: HCT-116; experiment: Cytotoxicity against human HCT116 cells assessed as cellular growth at 0.01 uM after 48 hrs by SRB assay relative to control
[10] = system: SW-620; experiment: Cytotoxicity against human SW620 cells assessed as cellular growth at 0.01 uM after 48 hrs by SRB assay relative to control
[11] = system: HCT-116; experiment: Cytotoxicity against human HCT116 cells assessed as cellular growth at 100 uM after 48 hrs by SRB assay relative to control
[12] = system: NCI-H23; experiment: Cytotoxicity against human NCI-H23 cells assessed as cellular growth at 1 uM after 48 hrs by SRB assay relative to control
[13] = system: Hs-578T; experiment: Cytotoxicity against human Hs578T cells assessed as cellular growth at 0.01 uM after 48 hrs by SRB assay relative to control
[14] = system: MDA-MB-231; experiment: Cytotoxicity against human MDA-MB-231 cells after 48 hrs by SRB assay; conditions: MDA-MB-231, 48 h
[15] = system: KM12; experiment: Cytotoxicity against human KM12 cells after 48 hrs by SRB assay; conditions: KM12, 48 h
[16] = system: TK-10; experiment: Cytotoxicity against human TK10 cells assessed as cellular growth at 0.1 uM after 48 hrs by SRB assay relative to control
[17] = system: HOP-62; experiment: Cytotoxicity against human HOP62 cells assessed as cellular growth at 100 uM after 48 hrs by SRB assay relative to control
[18] = system: MDA-MB-468; experiment: Cytotoxicity against human MDA-MB-468 cells assessed as cellular growth at 0.01 uM after 48 hrs by SRB assay relative to control
[19] = system: HOP-62; experiment: Cytotoxicity against human HOP62 cells assessed as cellular growth at 1 uM after 48 hrs by SRB assay relative to control
[20] = system: SNB-75; experiment: Cytotoxicity against human SNB75 cells assessed as cellular growth at 0.1 uM after 48 hrs by SRB assay relative to control
[21] = system: RXF 393; experiment: Cytotoxicity against human RXF393 cells assessed as cellular growth at 1 uM after 48 hrs by SRB assay relative to control
[22] = Cytotoxicity against human NCI-ADR-RES cells assessed as cellular growth at 1 uM after 48 hrs by SRB assay relative to control
[23] = system: T47D; experiment: Cytotoxicity against human T47D cells assessed as cellular growth at 0.01 uM after 48 hrs by SRB assay relative to control
[24] = system: Malme-3M; experiment: Cytotoxicity against human MALME-3M cells assessed as cellular growth at 100 uM after 48 hrs by SRB assay relative to control
[25] = system: 786-0; experiment: Cytotoxicity against human 786-0 cells assessed as cellular growth at 0.01 uM after 48 hrs by SRB assay relative to control
[26] = system: Malme-3M; experiment: Cytotoxicity against human MALME-3M cells assessed as cellular growth at 0.1 uM after 48 hrs by SRB assay relative to control
[27] = system: SN12C; experiment: Cytotoxicity against human SN12C cells assessed as cellular growth at 0.1 uM after 48 hrs by SRB assay relative to control
[28] = system: SN12C; experiment: Cytotoxicity against human SN12C cells after 48 hrs by SRB assay
[29] = system: OVCAR-8; experiment: Cytotoxicity against human OVCAR8 cells after 48 hrs by SRB assay; conditions: OVCAR-8, 48 h
[30] = system: UACC-257; experiment: Cytotoxicity against human UACC257 cells after 48 hrs by SRB assay; conditions: UACC-257, 48 h
[31] = system: SNB-19; experiment: Cytotoxicity against human SNB19 cells assessed as cellular growth at 0.1 uM after 48 hrs by SRB assay relative to control
[32] = system: SK-MEL-28; experiment: Cytotoxicity against human SK-MEL-28 cells assessed as cellular growth at 1 uM after 48 hrs by SRB assay relative to control
[33] = system: A498; experiment: Cytotoxicity against human A498 cells after 48 hrs by SRB assay; conditions: A498, 48 h
[34] = system: MDA-MB-468; experiment: Cytotoxicity against human MDA-MB-468 cells assessed as cellular growth at 1 uM after 48 hrs by SRB assay relative to control
[35] = system: BT-549; experiment: Cytotoxicity against human BT549 cells assessed as cellular growth at 100 uM after 48 hrs by SRB assay relative to control
[36] = system: NCI-H522; experiment: Cytotoxicity against human NCI-H522 cells assessed as cellular growth at 0.1 uM after 48 hrs by SRB assay relative to control
[37] = system: SK-MEL-5; experiment: Cytotoxicity against human SK-MEL-5 cells assessed as cellular growth at 0.01 uM after 48 hrs by SRB assay relative to control
[38] = read-out: LC50 (the source's name)
[39] = read-out: pLC50 (the source's name) (converted)

O=C(CCCn1c2c(sc3ccccc32)c(=O)n2nnc(-c3ccccc3)c12)NCCc1c[nH]cn1
Activity [1]: -38%
Activity [2]: 93%
Activity [3]: 70%
GI50 ([4]; read-out: GI50): 1.58 µM
CC50 [4, 38]: 6.26 µM
TGI ([4]; read-out: TGI): 3.14 µM
GI50 ([4]; read-out: pGI50 (converted)): 1.58 µM
CC50 [4, 39]: 6.31 µM
TGI ([4]; read-out: pTGI (converted)): 3.16 µM
Activity [5]: 55%
Activity [6]: -49%
Activity [7]: -100%
Activity [8]: -80%
Activity [9]: 16%
Activity [10]: 63%
Activity [11]: 3%
Activity [12]: 65%
Activity [13]: 109%
GI50 ([14]; read-out: GI50): 1.88 µM
LC50 ([14]; read-out: LC50): 6.54 µM
TGI ([14]; read-out: TGI): 3.51 µM
GI50 ([14]; read-out: pGI50 (converted)): 1.86 µM
LC50 ([14]; read-out: pLC50 (converted)): 6.61 µM
TGI ([14]; read-out: pTGI (converted)): 3.47 µM
GI50 ([15]; read-out: GI50): 0.336 µM
CC50 [15, 38]: 4.88 µM
TGI ([15]; read-out: TGI): 2.01 µM
GI50 ([15]; read-out: pGI50 (converted)): 0.339 µM
CC50 [15, 39]: 4.9 µM
TGI ([15]; read-out: pTGI (converted)): 2 µM
Activity [16]: 93%
Activity [17]: -66%
Activity [18]: 102%
Activity [19]: 67%
Activity [20]: 115%
Activity [21]: 113%
Activity [22]: 51%
Activity [23]: 85%
Activity [24]: -72%
Activity [25]: 98%
Activity [26]: 101%
Activity [27]: 40%
GI50 ([28]; read-out: GI50): 0.011 µM
CC50 [28, 38]: 5.51 µM
TGI ([28]; read-out: TGI): 2.03 µM
GI50 ([28]; read-out: pGI50 (converted)): 0.011 µM
CC50 [28, 39]: 5.5 µM
TGI ([28]; read-out: pTGI (converted)): 2.04 µM
GI50 ([29]; read-out: GI50): < 0.01 µM
CC50 [29, 38]: > 100 µM
TGI ([29]; read-out: TGI): 2.99 µM
GI50 ([29]; read-out: pGI50 (converted)): 0.01 µM
CC50 ([29]; read-out: pLC50 (converted)): > 100 µM
TGI ([29]; read-out: pTGI (converted)): 3.02 µM
GI50 ([30]; read-out: GI50): 2.14 µM
CC50 [30, 38]: 7.83 µM
TGI ([30]; read-out: TGI): 4.09 µM
GI50 ([30]; read-out: pGI50 (converted)): 2.14 µM
CC50 [30, 39]: 7.76 µM
TGI ([30]; read-out: pTGI (converted)): 4.07 µM
Activity [31]: 65%
Activity [32]: 92%
GI50 ([33]; read-out: GI50): 1.09 µM
CC50 [33, 38]: 5.61 µM
TGI ([33]; read-out: TGI): 2.47 µM
GI50 ([33]; read-out: pGI50 (converted)): 1.1 µM
CC50 [33, 39]: 5.62 µM
TGI ([33]; read-out: pTGI (converted)): 2.45 µM
Activity [34]: 8%
Activity [35]: -72%
Activity [36]: 42%
Activity [37]: 101%

CN1CCN(CCCn2c3c(sc4ncccc43)c(=O)n3nnc(-c4ccccc4)c23)CC1
Activity [1]: -67%
Activity [2]: 82%
Activity [3]: 96%
GI50 ([4]; read-out: GI50): 1.63 µM
CC50 [4, 38]: 6.79 µM
TGI ([4]; read-out: TGI): 3.32 µM
GI50 ([4]; read-out: pGI50 (converted)): 1.62 µM
CC50 [4, 39]: 6.76 µM
TGI ([4]; read-out: pTGI (converted)): 3.31 µM
Activity [5]: 100%
Activity [6]: -43%
Activity [7]: -97%
Activity [8]: -87%
Activity [9]: 97%
Activity [10]: 96%
Activity [11]: -64%
Activity [12]: 94%
Activity [13]: 95%
GI50 ([14]; read-out: GI50): 1.7 µM
TGI ([14]; read-out: TGI): 3.51 µM
GI50 ([14]; read-out: pGI50 (converted)): 1.7 µM
TGI ([14]; read-out: pTGI (converted)): 3.55 µM
GI50 ([15]; read-out: GI50): 1.73 µM
CC50 [15, 38]: 6.71 µM
TGI ([15]; read-out: TGI): 3.41 µM
GI50 ([15]; read-out: pGI50 (converted)): 1.74 µM
CC50 [15, 39]: 6.76 µM
TGI ([15]; read-out: pTGI (converted)): 3.39 µM
Activity [16]: 99%
Activity [17]: -81%
Activity [18]: 94%
Activity [19]: 97%
Activity [20]: 71%
Activity [21]: 93%
Activity [22]: 92%
Activity [23]: 89%
Activity [24]: -82%
Activity [25]: 103%
Activity [26]: 81%
Activity [27]: 88%
GI50 ([28]; read-out: GI50): 1.81 µM
TGI ([28]; read-out: TGI): 4.07 µM
GI50 ([28]; read-out: pGI50 (converted)): 1.82 µM
TGI ([28]; read-out: pTGI (converted)): 4.07 µM
GI50 ([29]; read-out: GI50): 1.93 µM
CC50 [29, 38]: > 100 µM
TGI ([29]; read-out: TGI): 4.49 µM
GI50 ([29]; read-out: pGI50 (converted)): 1.95 µM
CC50 ([29]; read-out: pLC50 (converted)): > 100 µM
TGI ([29]; read-out: pTGI (converted)): 4.47 µM
GI50 ([30]; read-out: GI50): 1.81 µM
CC50 [30, 38]: 6.3 µM
TGI ([30]; read-out: TGI): 3.37 µM
GI50 ([30]; read-out: pGI50 (converted)): 1.82 µM
CC50 [30, 39]: 6.31 µM
TGI ([30]; read-out: pTGI (converted)): 3.39 µM
Activity [31]: 96%
Activity [32]: 99%
GI50 ([33]; read-out: GI50): 11.2 µM
CC50 [33, 38]: 52.3 µM
TGI ([33]; read-out: TGI): 24.2 µM
GI50 ([33]; read-out: pGI50 (converted)): 11.2 µM
CC50 [33, 39]: 52.5 µM
TGI ([33]; read-out: pTGI (converted)): 24 µM
Activity [34]: 101%
Activity [35]: -81%
Activity [36]: 97%
Activity [37]: 96%
